From PubChem BioAssay (NCI) come the findings set out here.

Some test systems named below: CCRF-CEM leukemia; UACC-62 melanoma; SK-MEL-28 melanoma; SK-MEL-2 melanoma; NCI/ADR-RES ovarian; RPMI-8226 leukemia; MCF7 breast; MALME-3M melanoma; NCI-H522 lung; CAKI-1 renal.
Common to all, as to assay: DTP human tumour cell line panel, 48 h

The structures appear in SMILES notation.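 Briefly, cells in 96-well plates were exposed to five compound concentrations for 48 h, and endpoints were estimated by linear interpolation. GI50 is the concentration that inhibits growth by half. TGI denotes the concentration required for complete inhibition of growth.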 A value given as a limit tells only on which side of the number the result lay.

As for `CC(=C(c1ccc(OCCN2CCCCC2)cc1)c1ccc(OCCN2CCCCC2)cc1)c1ccc(Cl)cc1`, the GI50 is 0.493 µM in the experiment on CCRF-CEM leukemia; 0.442 µM in the experiment on UACC-62 melanoma; 0.422 µM with SK-MEL-28 melanoma; 0.459 µM with SK-MEL-2 melanoma; 0.446 µM with NCI/ADR-RES ovarian; 0.53 µM in the experiment on RPMI-8226 leukemia. In addition, the concentration for 50% growth inhibition (GI50) is 0.297 µM in the experiment with MCF7 breast, 0.419 µM in the experiment on MALME-3M melanoma, 0.411 µM with NCI-H522 lung and 0.397 µM in the experiment on CAKI-1 renal. Also, the TGI came out at 1.56 µM in the experiment on CCRF-CEM leukemia; 0.845 µM in the experiment with UACC-62 melanoma; 0.773 µM in the experiment on SK-MEL-28 melanoma; 0.909 µM in the experiment with SK-MEL-2 melanoma; 0.858 µM in the experiment on NCI/ADR-RES ovarian; 1.19 µM in the experiment on RPMI-8226 leukemia. Further, the concentration for total growth inhibition (TGI) in the experiment on MCF7 breast came out at 0.682 µM; in the experiment with MALME-3M melanoma it was 0.798 µM; in the experiment with NCI-H522 lung, 0.872 µM; in the experiment with CAKI-1 renal, 0.74 µM.
For `Cc1ccc(-c2nc(N3CCNCC3)c3oc(-c4ccc(C)cc4)nc3n2)cc1`, the GI50 in the experiment with CCRF-CEM leukemia is 1.49 µM; in the experiment on UACC-62 melanoma it was 13.3 µM; in the experiment on SK-MEL-28 melanoma it was 6.14 µM; with SK-MEL-2 melanoma, more than 41.6 µM; in the experiment on NCI/ADR-RES ovarian it was 2 µM; in the experiment with RPMI-8226 leukemia, 2.48 µM. Moreover, the GI50 is 1.66 µM in the experiment with MCF7 breast, 7.23 µM in the experiment on MALME-3M melanoma, 14.2 µM in the experiment with NCI-H522 lung and 24.1 µM with CAKI-1 renal. Moreover, the TGI is 4.04 µM in the experiment on CCRF-CEM leukemia; 28.6 µM with UACC-62 melanoma; 11.5 µM in the experiment with SK-MEL-28 melanoma; more than 60.9 µM in the experiment on SK-MEL-2 melanoma; 3.81 µM in the experiment with NCI/ADR-RES ovarian; 5.28 µM with RPMI-8226 leukemia. The TGI in the experiment with MCF7 breast is 3.53 µM; with MALME-3M melanoma it was 18.9 µM; in the experiment on NCI-H522 lung, 36.1 µM; with CAKI-1 renal it was more than 45.6 µM.
`OC(c1cc(C(F)(F)F)nc2c(C(F)(F)F)cccc12)C1CCCCN1` (stereo not given): the GI50 in the experiment on CCRF-CEM leukemia is 3.04 µM; in the experiment on UACC-62 melanoma, 1.89 µM; with SK-MEL-28 melanoma it was 1.84 µM; in the experiment on SK-MEL-2 melanoma, 2.31 µM; with NCI/ADR-RES ovarian, 2.31 µM; with RPMI-8226 leukemia it was 3.22 µM. Besides, the GI50 in the experiment with MCF7 breast was 1.85 µM; in the experiment on MALME-3M melanoma it was 2.6 µM; in the experiment on NCI-H522 lung, 1.65 µM; in the experiment with CAKI-1 renal, 1.78 µM. Also, the total growth inhibition concentration (TGI) in the experiment on CCRF-CEM leukemia worked out at 9.13 µM; in the experiment with UACC-62 melanoma it was 4.47 µM; with SK-MEL-28 melanoma it was 3.29 µM; in the experiment with SK-MEL-2 melanoma, 4.16 µM; in the experiment with NCI/ADR-RES ovarian, 5.95 µM; with RPMI-8226 leukemia it was 11.5 µM. Further, the TGI in the experiment with MCF7 breast is 3.49 µM; in the experiment with MALME-3M melanoma, 7.36 µM; in the experiment on NCI-H522 lung it was 3.2 µM; in the experiment with CAKI-1 renal, 4.67 µM.
Consider `CC(C)(C)[Si](C)(C)OC1[C@@H](O[Si](C)(C)C(C)(C)C)[C@@H](CNC(=O)NC(=O)C(F)(F)F)O[C@H]1n1cnc2c(NC(=O)Nc3ccccc3)ncnc21` (stereo not given in full), for which the GI50 with CCRF-CEM leukemia was 7.31 µM; in the experiment with UACC-62 melanoma, 7.45 µM; in the experiment with SK-MEL-28 melanoma it was 8.04 µM; in the experiment with SK-MEL-2 melanoma, 9.37 µM; in the experiment on NCI/ADR-RES ovarian, 7.56 µM; in the experiment on RPMI-8226 leukemia, 7.11 µM. For the same molecule, the GI50 in the experiment with MCF7 breast was 2.05 µM; in the experiment on MALME-3M melanoma, 10.4 µM; in the experiment on NCI-H522 lung, 9.14 µM; in the experiment on CAKI-1 renal it was 8.24 µM. For the same molecule, the TGI with CCRF-CEM leukemia is 41.6 µM; in the experiment with UACC-62 melanoma it was 15.9 µM; with SK-MEL-28 melanoma it was 15.2 µM; in the experiment with SK-MEL-2 melanoma, 17.3 µM; in the experiment on NCI/ADR-RES ovarian, 14.7 µM; in the experiment on RPMI-8226 leukemia it was 28.6 µM. Further, the TGI with MCF7 breast was found to be 8.07 µM; in the experiment on MALME-3M melanoma, 19.5 µM; in the experiment on NCI-H522 lung, 16.6 µM; in the experiment with CAKI-1 renal, 17 µM.
Consider `CN1CCN(c2ccc(Nc3ncc(Cl)c(NC[C@@H]4CCCO4)n3)cc2)CC1`, for which the GI50 in the experiment on CCRF-CEM leukemia was 0.466 µM; in the experiment on UACC-62 melanoma, 1.95 µM; with SK-MEL-28 melanoma, 4.18 µM; with SK-MEL-2 melanoma, 2.59 µM; with NCI/ADR-RES ovarian, 3.15 µM; in the experiment on RPMI-8226 leukemia it was 1.48 µM. The GI50 in the experiment on MCF7 breast was 0.683 µM; with MALME-3M melanoma it was 1.49 µM; in the experiment with NCI-H522 lung, 1.52 µM; in the experiment on CAKI-1 renal, 2.07 µM. For the same molecule, the TGI in the experiment with CCRF-CEM leukemia was 9.04 µM; with UACC-62 melanoma, 10.5 µM; with SK-MEL-28 melanoma, 21.5 µM; with SK-MEL-2 melanoma it was 7.94 µM; with NCI/ADR-RES ovarian it was more than 100 µM; in the experiment with RPMI-8226 leukemia it was 5.63 µM. For the same molecule, the total growth inhibition concentration (TGI) in the experiment on MCF7 breast was 26.9 µM; in the experiment on MALME-3M melanoma, 8.06 µM; in the experiment with NCI-H522 lung, 10.9 µM; with CAKI-1 renal it was more than 100 µM.
With `Br[Se]c1ccccn1`, the TGI with CCRF-CEM leukemia is more than 100 µM; with UACC-62 melanoma, 30.9 µM; in the experiment on SK-MEL-28 melanoma, 37.5 µM; in the experiment with SK-MEL-2 melanoma, 30.1 µM; in the experiment with NCI/ADR-RES ovarian, 61.6 µM; with RPMI-8226 leukemia, 60.9 µM. Also, the concentration for total growth inhibition (TGI) was determined as 32.5 µM with MCF7 breast, 31.2 µM with MALME-3M melanoma, 30.4 µM in the experiment on NCI-H522 lung and 33 µM with CAKI-1 renal.

A word on the GI50: it is the concentration that inhibits growth by half. The TGI is the concentration at which net growth stops. A low value points to more potent growth arrest.
